Results taken from ChEMBL document CHEMBL1697781, “Assessment of the health effects of chemicals in humans: II. Construction of an adverse effects database for QSAR modeling” (Curr Drug Discov Technol, 2004).

Legend:
Conditions in all cases: human; call rule not given here
Hepatotoxicity [1] = experiment: FDA HLAED, gamma-glutamyl transferase (GGT) increase
Hepatotoxicity [2] = experiment: FDA HLAED, serum glutamic pyruvic transaminase (SGPT) increase
Hepatotoxicity [3] = experiment: FDA HLAED, lactate dehydrogenase (LDH) increase
Hepatotoxicity [4] = experiment: FDA HLAED, liver enzyme composite activity
Hepatotoxicity [5] = experiment: FDA HLAED, serum glutamic oxaloacetic transaminase (SGOT) increase
Hepatotoxicity [6] = experiment: FDA HLAED, alkaline phosphatase increase
Wherever GGT Increase - Index Value is given: reference of the scale not given here.
Wherever LDH Increase - Index Value is given: reference of the scale not given here.

| SMILES | GGT Increase - Activity Score (Hepatotoxicity [1]) | GGT Increase - Index Value (Hepatotoxicity [1]) | GGT Increase - Number of Reports (Hepatotoxicity [1]) | SGPT Increase - Activity Score (Hepatotoxicity [2]) | SGPT Increase - Index Value (Hepatotoxicity [2]) | SGPT Increase - Number of Reports (Hepatotoxicity [2]) | LDH Increase - Activity Score (Hepatotoxicity [3]) | LDH Increase - Index Value (Hepatotoxicity [3]) | LDH Increase - Number of Reports (Hepatotoxicity [3]) | SGOT Increase - Activity Score (Hepatotoxicity [5]) | SGOT Increase - Index Value (Hepatotoxicity [5]) | SGOT Increase - Number of Reports (Hepatotoxicity [5]) | Alkaline Phosphatase Increase - Activity Score (Hepatotoxicity [6]) | Alkaline Phosphatase Increase - Index Value (Hepatotoxicity [6]) | Alkaline Phosphatase Increase - Number of Reports (Hepatotoxicity [6]) | Composite Activity - Active (Hepatotoxicity [4]) | Composite Activity - Marginal (Hepatotoxicity [4]) | Composite Activity - Score (Hepatotoxicity [4]) | also measured |
| --- | --- | --- | --- | --- | --- | --- | --- | --- | --- | --- | --- | --- | --- | --- | --- | --- | --- | --- | --- |
| CC(C)n1c(/C=C/C(O)CC(O)CC(=O)O)c(-c2ccc(F)cc2)c2ccccc21 (stereo unspecified) [FLUVASTATIN] | Inactive | 0.7 | >= 4 | Inactive | 1 | >= 4 | Inactive | 0 | < 4 | Inactive | 1 | >= 4 | Inactive | 0.5 | >= 4 | – | – | – | Composite Activity - Active (Hepatotoxicity [4]; Liver): 0; Composite Activity - Marginal (Hepatotoxicity [4]; Liver): 0; Composite Activity - Score (Hepatotoxicity [4]; Liver): Inactive |
| COCCCC/C(=N\OCCN)c1ccc(C(F)(F)F)cc1 [FLUVOXAMINE] | Inactive | 1.4 | < 4 | Active | 8.9 | >= 4 | Inactive | 2.1 | < 4 | Active | 8.9 | >= 4 | Inactive | 2.7 | >= 4 | 2 | 0 | Active | – |
| O=C(O)P(=O)(O)O [FOSCARNET] | Active | 36.3 | < 4 | Active | 72.6 | >= 4 | Active | 48.4 | >= 4 | Active | 121.1 | >= 4 | Active | 181.6 | >= 4 | 5 | 0 | Active | – |
| C[C@@H]1O[C@@H]1P(=O)(O)O [FOSFOMYCIN] | Inactive | 0 | < 4 | Inactive | 0 | < 4 | Inactive | 0 | < 4 | Inactive | 0 | < 4 | Inactive | 0 | < 4 | 0 | 0 | Inactive | – |
| CCC(=O)O[C@@H](O[P@](=O)(CCCCc1ccccc1)CC(=O)N1C[C@H](C2CCCCC2)C[C@H]1C(=O)O)C(C)C [FOSINOPRIL] | Inactive | 0.6 | < 4 | Inactive | 1.5 | >= 4 | Inactive | 0.6 | < 4 | Inactive | 1.5 | >= 4 | Inactive | 0.3 | < 4 | 0 | 0 | Inactive | – |
| O=C1NC(c2ccccc2)(c2ccccc2)C(=O)N1COP(=O)(O)O [FOSPHENYTOIN] | Inactive | 0 | < 4 | Inactive | 0 | < 4 | Inactive | 0 | < 4 | Inactive | 0 | < 4 | Inactive | 0 | < 4 | 0 | 0 | Inactive | – |
| NCC1(CC(=O)O)CCCCC1 [GABAPENTIN] | Inactive | 0.7 | >= 4 | Inactive | 0.8 | >= 4 | Inactive | 0.4 | < 4 | Inactive | 0.8 | >= 4 | Inactive | 0.7 | >= 4 | 0 | 0 | Inactive | – |
| Nc1nc(O)c2ncn(COC(CO)CO)c2n1 [GANCICLOVIR] | Inactive | 0.8 | < 4 | Inactive | 2.3 | >= 4 | Inactive | 1.9 | >= 4 | Inactive | 2.7 | >= 4 | Active | 4.2 | >= 4 | 1 | 0 | Inactive | – |
| Nc1ccn([C@@H]2O[C@H](CO)[C@@H](O)C2(F)F)c(=O)n1 [GEMCITABINE] | Inactive | 1.4 | < 4 | Inactive | 1.4 | < 4 | Inactive | 1.4 | < 4 | Inactive | 1.4 | < 4 | Inactive | 4.3 | < 4 | 0 | 0 | Inactive | – |
| Cc1ccc(C)c(OCCCC(C)(C)C(=O)O)c1 [GEMFIBROZIL] | Inactive | 0 | < 4 | Inactive | 0 | < 4 | Inactive | 0 | < 4 | Inactive | 0 | < 4 | Inactive | 0 | < 4 | 0 | 0 | Inactive | – |
| CCC1=C(C)CN(C(=O)NCCc2ccc(S(=O)(=O)NC(=O)N[C@H]3CC[C@H](C)CC3)cc2)C1=O [GLIMEPIRIDE] | Inactive | 1.2 | < 4 | Inactive | 1.2 | < 4 | Inactive | 0 | < 4 | Inactive | 1.2 | < 4 | Inactive | 1.2 | < 4 | 0 | 0 | Inactive | – |
| COc1ccc(Cl)cc1C(=O)NCCc1ccc(S(=O)(=O)NC(=O)NC2CCCCC2)cc1 [GLYBURIDE] | Inactive | 0 | < 4 | Inactive | 2.2 | >= 4 | Inactive | 0.8 | >= 4 | Inactive | 1.8 | >= 4 | Marginally Active | 3.4 | >= 4 | 0 | 1 | Inactive | – |
